Test results: patent US12304914B2, “Pyrazolo[3,4-d]pyrrolo[1,2-b]pyridazinyl compounds useful as IRAK4 inhibitors” (BRISTOL-MYERS SQUIBB COMPANY, priority 2019, dated 2025)

Biological target: IRAK4 (Homo sapiens (Human), UniProt Q9NWZ3)
Assay: IRAK4 Inhibition Assay
Assay type: biochemical
Conditions: ATP 500 μM; FL-peptide 1.5 μM; IRAK4 0.6 nM; 60 min room temperature; Caliper LABCHIP 3000
Protocol: The assays were performed in U-bottom 384-well plates. The final assay volume was 30 μL prepared from 15 μL additions of enzyme and substrates (fluoresceinated peptide and ATP) and test compounds in assay buffer (20 mM HEPES pH 7.2, 10 mM MgCl2, 0.015% Brij 35 and 4 mM DTT). The reaction was initiated by the combination of IRAK4 with substrates and test compounds. The reaction mixture was incubated at room temperature for 60 min. and terminated by adding 45 μL of 35 mM EDTA to each sample. The reaction mixture was analyzed on the Caliper LABCHIP® 3000 (Caliper, Hopkinton, MA) by electrophoretic separation of the fluorescent substrate and phosphorylated product. Inhibition data were calculated by comparison to no enzyme control reactions for 100% inhibition and vehicle-only reactions for 0% inhibition. The final concentrations of reagents in the assays are ATP, 500 μM; FL-IPTSPITTTYFFFKKK peptide 1.5 μM; IRAK4, 0.6 nM; and DMSO, 1.6%.

Chain of IRAK4 (Q9NWZ3 whole entry): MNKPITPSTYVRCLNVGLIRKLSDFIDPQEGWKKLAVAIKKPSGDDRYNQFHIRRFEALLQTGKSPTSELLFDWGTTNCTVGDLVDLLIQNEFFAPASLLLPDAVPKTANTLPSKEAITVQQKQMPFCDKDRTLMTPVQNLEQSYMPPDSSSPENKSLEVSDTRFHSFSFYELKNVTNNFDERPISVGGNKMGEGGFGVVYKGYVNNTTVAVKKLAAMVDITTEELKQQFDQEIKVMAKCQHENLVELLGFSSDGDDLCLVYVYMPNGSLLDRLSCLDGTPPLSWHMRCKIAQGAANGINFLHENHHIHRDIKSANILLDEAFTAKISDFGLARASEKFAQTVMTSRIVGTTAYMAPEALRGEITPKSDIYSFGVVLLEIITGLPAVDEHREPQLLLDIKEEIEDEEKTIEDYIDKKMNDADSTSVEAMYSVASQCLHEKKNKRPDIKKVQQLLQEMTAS

IC50 [µM] | SMILES
0.181 | COC(=O)NC1CCC(Nc2nn(C(C)C)c3c2cnn2cc(-c4ccncc4)cc32)CC1 (stereo not drawn) [Example 7, methyl (4-((1-isopropyl-8-(pyridin-4-yl)-1H-pyrazolo[3,4-d]pyrrolo[1,2-b]pyridazin-3-yl)amino)cyclohexyl)carbamate]
1 | COC(=O)N1CCC(CNc2nn(C(C)C)c3c2cnn2cc(-c4cccnc4)cc32)CC1 [Example 2, methyl 4-(((1-isopropyl-8-(pyridin-3-yl)-1H-pyrazolo[3,4-d]pyrrolo[1,2-b]pyridazin-3-yl)amino)methyl)piperidine-1-carboxylate]
0.232 | COC(=O)N1CCC(CNc2nn(C(C)C)c3c2cnn2cc(-c4ccncc4)cc32)CC1 [Example 4, methyl 4-(((1-isopropyl-8-(pyridin-4-yl)-1H-pyrazolo[3,4-d]pyrrolo[1,2-b]pyridazin-3-yl)amino)methyl)piperidine-1-carboxylate]
0.696 | COC(=O)NC1CCC(Nc2nn(C(C)C)c3c2cnn2cc(-c4cccnc4)cc32)CC1 (stereo not drawn) [Example 6, methyl (4-((1-isopropyl-8-(pyridin-3-yl)-1H-pyrazolo[3,4-d]pyrrolo[1,2-b]pyridazin-3-yl)amino)cyclohexyl)carbamate]
0.756 | CC(C)n1nc(NC2CCNCC2)c2cnn3cc(-c4ccncc4)cc3c21 [Example 9, 1-isopropyl-N-(piperidin-4-yl)-8-(pyridin-4-yl)-1H-pyrazolo[3,4-d]pyrrolo[1,2-b] pyridazin-3-amine]
0.143 | CC(C)n1nc(NCC2CCN(C)CC2)c2cnn3cc(-c4ccncc4)cc3c21 [Example 5, 1-isopropyl-N-((1-methylpiperidin-4-yl)methyl)-8-(pyridin-4-yl)-1H-pyrazolo[3,4-d] pyrrolo[1,2-b]pyridazin-3-amine]
0.211 | CC(C)n1nc(NCC2CCNCC2)c2cnn3cc(-c4ccncc4)cc3c21 [Example 3, 1-isopropyl-N-(piperidin-4-ylmethyl)-8-(pyridin-4-yl)-1H-pyrazolo[3,4-d] pyrrolo[1,2-b]pyridazin-3-amine]
0.139 | CC(=O)N1CCC(Nc2nn(C(C)C)c3c2cnn2cc(-c4ccncc4)cc32)CC1 [Example 8, 1-(4-((1-isopropyl-8-(pyridin-4-yl)-1H-pyrazolo[3,4-d]pyrrolo[1,2-b]pyridazin-3-yl)amino)piperidin-1-yl)ethan-1-one]
0.896 | CC(C)n1nc(NCC2CCNCC2)c2cnn3cc(-c4cccnc4)cc3c21 [Example 1, 1-isopropyl-N-(piperidin-4-ylmethyl)-8-(pyridin-3-yl)-1H-pyrazolo[3,4-d]pyrrolo[1,2-b] pyridazin-3-amine]
